Measurements reported in US12435083B2, “Cyclopropyl-(hetero)aryl-substituted ethylsulphonyl-pyridine derivatives” (BOEHRINGER INGELHEIM VETMEDICA GMBH, priority 2021, dated 2025).

Experiments:
[1] = test system: adult Rhipicephalus sanguineus ticks; assay: Contact activity against adult Rhipicephalus sanguineus (coated vial, mortality at 48 h); conditions: contact assay; >100 μM = not active at the top concentration; read-out: R. sanguineus contact activity EC50
Procedure, shortened: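 Compound in acetone/0.02% Triton X-100 coated onto glass vial walls and cap filter paper; after drying, ten adult ticks added per vial. Held at 24° C, 95% relative humidity, 12 h light/dark cycle. Mortality scored visually at 48 hours; EC50 derived from a dose-response series.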

[2] = test system: adult Ctenocephalides felis fleas; assay: Ingestion activity (flea membrane feeding, blood feeding) against adult Ctenocephalides felis; conditions: flea membrane feeding (ingestion, blood feeding) assay, EC80
[3] = test system: nymphs of Dermacentor variabilis ticks; assay: Oral rat-tick efficacy against nymphs of Dermacentor variabilis ticks; format: in vivo; conditions: rats, oral gavage 10 mg/kg on Day 0, tick count on Day 3
Experimental: Example 10: Comparison of Oral Rat-Tick Efficacy Data for Selected Specific Compounds of Formula (I) Against Nymphs of Dermacentor variabilis Ticks
On Day −1, rats were sedated, fitted with an Elizabethan collar, and infested with approximately 35 nymphal stage D. variabilis ticks. On Day 0, each rat was treated via oral gavage with the appropriate formulation of placebo, positive control, or test compound at the appropriate dose. On Day 3, all rats were euthanized, and ticks were removed, counted, and disposed of. In Table 2 efficacy is expressed in % mortality compared to negative controls containing compound vehicle only.

Row | Compound | EC50 [1] | EC80 ([2]; read-out: C. felis membrane feeding (ingestion/blood feeding) activity EC80) | Observed efficacy (% mortality compared to negative controls) [3] | C. felis membrane feeding (ingestion/blood feeding) activity EC80 [2]
1 | CCS(=O)(=O)c1cc(-c2ccc(C3(F)CC3)cc2)cnc1-c1nc2cc(C(F)(F)C(F)(F)F)nnc2n1C [compound 19] | 10 to 100 µM | <1 µM | >95% | –
2 | CCS(=O)(=O)c1cc(-c2ccc(C3CC3)cc2)cnc1-c1nc2cc(C(F)(F)C(F)(F)F)cnc2n1C [compound 44] | 10 to 100 µM | – | >95% | 1 to 10 µM
